These results are taken from US9241488B2, “Azole derivative, method for producing azole derivative, and intermediate compound” (KUREHA CORPORATION, priority 2011, dated 2016).

Assay [1] concerns Rice bacterial seeding blight (Rhizopus oryzae). The assay is described as follows: Anti-bacterial effect on various microorganisms (plate medium), R.o. Format: cell-based.
Assay [2] relates to Wheat pink snow mold (Microdochium nivale). The assay is described as follows: Anti-bacterial effect on various microorganisms (plate medium), M.n. Format: cell-based.
The subject of assay [3] is wheat leaf blight-causing microorganisms. The assay can be described thus: Anti-bacterial effect on wheat leaf blight-causing microorganisms (PDA plate, mycelial growth inhibition). It counts as cell-based, Septoria tritici. The conditions noted are these: 1.25 mg/L in PDA plate medium, 25° C., 14 days. The method, then: In Test Examples, an anti-bacterial effect of a compound in accordance with the present invention on the wheat leaf blight-causing microorganisms was tested, and was compared with the anti-bacterial effect of a comparative compound (1).
A dimethyl sulfoxide solution (0.6 ml) containing a compound in accordance with the present invention was added to a PDA medium (potato dextrose agar medium) (60 ml) having about 60° C., and the resultant mixture was mixed thoroughly in a 100-ml conical flask. The mixture was poured into a dish, and was solidified. […]
On the other hand, a subject microorganism previously cultured on a plate medium was cut out with use of a cork borer whose diameter was 4 mm, and the wheat leaf blight-causing microorganism on the plate medium thus cut out was inoculated to the chemical-containing plate medium described above. After such inoculation, the chemical-containing plate medium was incubated at 25° C. for 14 days, and then diameters of its flora were measured. A % mycelial growth inhibition was calculated with use of the formula. R=100(dc−dt)/dc (where R=% mycelial extension inhibition, dc=flora diameter in untreated plate, dt=flora diameter in treated plate)
The results obtained as described above were evaluated on a five-point scale according to the following criteria.
• 5: % Mycerial growth inhibition of 80% or higher • 4: % Mycerial growth inhibition of less than 80 to 60% or higher • 3: % Mycerial growth inhibition of less than 60 to 40% or higher • 2: % Mycerial growth inhibition of less than 40 to 20% or higher • 1: % Mycerial growth inhibition of less than 20%

Assay [4] relates to Barley leaf blotch (Rhynchosporium secalis). The assay is described as follows: Anti-bacterial effect on various microorganisms (plate medium), R. sec. It counts as cell-based.
The subject of assay [5] is Rice bakanae disease (Giberella fujikuroi). The assay is described as follows: Anti-bacterial effect on various microorganisms (plate medium), G.f. It counts as cell-based.
The subject of assay [6] is Wheat Septoria nodorum blotch microorganism (Phaeosphaeria nodorum). The assay can be described thus: Anti-bacterial effect on various microorganisms (plate medium), P.n. It counts as cell-based.
Assay [7] has as its system wheat-brown-rust-causing microorganisms. The assay is described as follows: Controlling effect on wheat brown rust (spray, pot test). To be noted: 1 mg/L sprayed at 1,000 L/ha, wheat NORIN No. 61, 9 to 14 days after inoculation. It counts as in vivo, Puccinia recondita. The method, then: Onto a wheat plant (cultivar: NORIN No. 61) grown to the two-leaf stage with use of a square plastic pot (6 cm×6 cm), a wettable formulation such as Formulation Example 1 which was diluted and suspended in water at a concentration of 1 mg/L was sprayed at a rate of 1,000 L/ha. The sprayed leaves were air-dried, and inoculated with spore suspension of wheat-brown-rust-causing microorganisms (adjusted at 200 spores/vision, […] was added at 60 ppm) by spraying, and kept at 25° C. and a high humidity for 48 hours. Thereafter, the plant was kept in a greenhouse. Nine to fourteen days after inoculation, the wheat brown rust lesion degree was evaluated. The protective value was calculated by the following equation. Protective value (%)=(1-mean lesion degree in sprayed plot/mean lesion degree in unsprayed plot)×100 [table] [table]

Assay [8] has as its system Rice blast (Pyricularia oryzae). It counts as cell-based.
The test system of assay [9] is Alternaria blotch (Alternaria alternata). The assay can be described thus: Anti-bacterial effect on various microorganisms (plate medium), A.m. It counts as cell-based.
Assay [10] concerns Cucumber fusarium wilt (Fusarium oxysporum). The assay is described as follows: Anti-bacterial effect on various microorganisms (plate medium), F.c. Format: cell-based.
For assay [11], the system named is Sclerotinia rot (Sclerotinia sclerotiorum). The assay is described as follows: Anti-bacterial effect on various microorganisms (plate medium), S.s. It counts as cell-based.
The subject of assay [12] is Wheat eye spot (Pseudocercoporella herpotrichoides). The assay can be described thus: Anti-bacterial effect on various microorganisms (plate medium), P.h. It counts as cell-based.
In assay [13] the test system is Gray mold (Botritis cinerea). The assay is described as follows: Anti-bacterial effect on various microorganisms (plate medium), B.c. It counts as cell-based.
Assay [14] relates to Wheat fusarium blight (Fusarium graminearum). Format: cell-based.
Assay [15] relates to Barley loose smut (Ustilago nuda). The assay is described as follows: Anti-bacterial effect on various microorganisms (plate medium), U.n. It counts as cell-based.

Read-outs that look alike come from different tables or passages of the source.

`COC[C@]1(CCl)CC[C@H](Cc2ccc(Cl)cc2)[C@]1(O)Cn1cncn1` (racemic) [Compound I-16b, (1RS,2RS,5RS)-5-(4-chlorobenzyl)-2-chloromethyl-2-methoxymethyl-1H-[1,2,4]triazole-1-ylmethylcyclopentanol]: the “Growth inhibition grade R.o” value in assay [1] (1.25 mg/L) and in assay [1] (5 mg/L) was 5 (% Mycerial growth inhibition of 80% or higher) each time. Moreover, the “Growth inhibition grade M.n” value in assay [2] (1.25 mg/L) is on record as 3 (% Mycerial growth inhibition of less than 60 to 40% or higher); in [2] (5 mg/L) it was 5 (% Mycerial growth inhibition of 80% or higher).
With `COC[C@]1(CCl)CC[C@@H](Cc2ccc(F)cc2)[C@]1(O)Cn1cncn1` (racemic) [Compound I-170, (1RS,2RS,5SR)-5-(4-fluorobenzyl)-2-chloromethyl-2-methoxymethyl-1H-[1,2,4]triazole-1-ylmethylcyclopentanol], the Growth inhibition grade in assay [3] is listed as 5 (% Mycerial growth inhibition of 80% or higher). Also, the “Growth inhibition grade R. sec” value in assay [4] (1.25 mg/L) and in [4] (5 mg/L) was 5 (% Mycerial growth inhibition of 80% or higher) in each case. The “Growth inhibition grade G.f” value in [5] (1.25 mg/L) and in assay [5] (5 mg/L) was 5 (% Mycerial growth inhibition of 80% or higher) in each case. The “Growth inhibition grade P.n” value in assay [6] (1.25 mg/L) and in assay [6] (5 mg/L) was 5 (% Mycerial growth inhibition of 80% or higher) in each case. For the same compound, the Protective value in assay [7] is on record as 4 (61 to 80). Besides, the “Growth inhibition grade P.o” value in assay [8] (1.25 mg/L) and in [8] (5 mg/L) was 5 (% Mycerial growth inhibition of 80% or higher) throughout. Further, the “Growth inhibition grade R.o” value in [1] (1.25 mg/L) and in [1] (5 mg/L) was 5 (% Mycerial growth inhibition of 80% or higher) throughout. The “Growth inhibition grade M.n” value in [2] (1.25 mg/L) and in [2] (5 mg/L) was 5 (% Mycerial growth inhibition of 80% or higher) throughout. Moreover, the “Growth inhibition grade A.m” value was 4 (% Mycerial growth inhibition of less than 80 to 60% or higher) in [9] (1.25 mg/L) and 5 (% Mycerial growth inhibition of 80% or higher) in assay [9] (5 mg/L). Further, the “Growth inhibition grade F.c” value in assay [10] (1.25 mg/L) and in assay [10] (5 mg/L) was 5 (% Mycerial growth inhibition of 80% or higher) throughout. The “Growth inhibition grade S.s” value in [11] (1.25 mg/L) and in assay [11] (5 mg/L) was 5 (% Mycerial growth inhibition of 80% or higher) each time. In addition, the “Growth inhibition grade P.h” value in [12] (1.25 mg/L) and in [12] (5 mg/L) was 5 (% Mycerial growth inhibition of 80% or higher) each time. Further, the “Growth inhibition grade B.c” value in [13] (1.25 mg/L) and in assay [13] (5 mg/L) was 5 (% Mycerial growth inhibition of 80% or higher) in each case. Also, the “Growth inhibition grade F.g” value in [14] (1.25 mg/L) and in assay [14] (5 mg/L) was 5 (% Mycerial growth inhibition of 80% or higher) each time. The “Growth inhibition grade U.n” value in assay [15] (1.25 mg/L) and in assay [15] (5 mg/L) was 5 (% Mycerial growth inhibition of 80% or higher) in each case.
As to `COC[C@]1(CCl)CC[C@@H](Cc2ccccc2)[C@]1(O)Cn1cncn1` (racemic) [Compound I-187, (1RS,2RS,5SR)-5-benzyl-2-chloromethyl-2-methoxymethyl-1H-[1,2,4]triazole-1-ylmethylcyclopentanol], in [3], the Growth inhibition grade is on record as 5 (% Mycerial growth inhibition of 80% or higher). Further, the “Growth inhibition grade R. sec” value in assay [4] (1.25 mg/L) and in [4] (5 mg/L) was 5 (% Mycerial growth inhibition of 80% or higher) each time. For the same compound, the “Growth inhibition grade G.f” value in [5] (1.25 mg/L) and in assay [5] (5 mg/L) was 5 (% Mycerial growth inhibition of 80% or higher) each time. Besides, the “Growth inhibition grade P.n” value is reported as 4 (% Mycerial growth inhibition of less than 80 to 60% or higher) in assay [6] (1.25 mg/L) and 5 (% Mycerial growth inhibition of 80% or higher) in assay [6] (5 mg/L). In addition, the Protective value in assay [7] is 4 (61 to 80). In addition, the “Growth inhibition grade P.o” value in assay [8] (1.25 mg/L) and in assay [8] (5 mg/L) was 5 (% Mycerial growth inhibition of 80% or higher) in each case. The “Growth inhibition grade R.o” value in [1] (1.25 mg/L) and in assay [1] (5 mg/L) was 5 (% Mycerial growth inhibition of 80% or higher) in each case. For the same compound, the “Growth inhibition grade M.n” value in [2] (1.25 mg/L) and in assay [2] (5 mg/L) was 5 (% Mycerial growth inhibition of 80% or higher) in each case. Also, the figures for the “Growth inhibition grade A.m” value in assay [9] (1.25 mg/L) and in [9] (5 mg/L) were 4 (% Mycerial growth inhibition of less than 80 to 60% or higher) and 5 (% Mycerial growth inhibition of 80% or higher), respectively. Also, the “Growth inhibition grade F.c” value in [10] (1.25 mg/L) and in assay [10] (5 mg/L) was 5 (% Mycerial growth inhibition of 80% or higher) each time. Besides, the “Growth inhibition grade S.s” value in [11] (1.25 mg/L) and in [11] (5 mg/L) was 5 (% Mycerial growth inhibition of 80% or higher) in each case. The “Growth inhibition grade P.h” value in [12] (1.25 mg/L) and in assay [12] (5 mg/L) was 5 (% Mycerial growth inhibition of 80% or higher) in each case. The “Growth inhibition grade B.c” value in [13] (1.25 mg/L) and in assay [13] (5 mg/L) was 5 (% Mycerial growth inhibition of 80% or higher) each time. The “Growth inhibition grade F.g” value in assay [14] (1.25 mg/L) and in assay [14] (5 mg/L) was 5 (% Mycerial growth inhibition of 80% or higher) in each case. Also, the “Growth inhibition grade U.n” value in [15] (1.25 mg/L) and in [15] (5 mg/L) was 5 (% Mycerial growth inhibition of 80% or higher) throughout.
